Consider 3 compounds from patent US20250277066A1, “Substituted Pyridine-2,6-Bis(Phenylenephenolate) Complexes with Enhanced Solubility that are Useful as Catalyst Components for Olefin Polymerization” (ExxonMobil Chemical Patents Inc., priority 2022, published 2025).

A short description of data set [1]: DSC melting point of polymers (TA-Q100). It counts as physicochemical. How it is done: Differential Scanning Calorimetry (DSC) measurements were performed on a TA-Q100 instrument to determine the melting point of the polymers. Samples were pre-annealed at 220° C. for 15 minutes and then allowed to cool to room temperature overnight. The samples were then heated to 220° C. at a rate of 100° C./minute and then cooled at a rate of 50° C./minute. Melting points were collected during the heating period. The results are reported in the Table 2 under the heading, Tm (° C.).

Data set [2] can be described thus: Solubility of complexes in isohexane (Method 1 or Method 2). Type of data set: physicochemical. As to conditions: ambient temperature (20° C.-25° C.), mass includes residual solvent. How it is done: Solubility studies for all other complexes were performed using material as synthesized. […] Solvents used were sparged with nitrogen (30-60 minutes) and dried over 3 Å mole sieves. Unless stated otherwise all measurements were performed at ambient temperature (20° C.-25° C.).
General procedure: Solubility was determined using the following Method 1 or Method 2. For calculations, a value of 0.672 g/mL was used for the density of isohexane.
Method 1: A tared vial was loaded with a small amount of the complex (actual mass recorded, including any residual solvent as noted above, typically 5-30 mg). Then a small stir bar (8 mm) was added. Solvent was then added and the mixture was stirred rapidly (1000 rpm). […] This process was repeated until either a clear solution was obtained (no visible solids or murkiness) or the vial was full. As the mixture approached homogeneity (i.e., few remaining solids observed) the volume of the solvent additions was kept small (<1 mL) to minimize excess beyond the solvent required to achieve homogeneity. The stir bar was then removed and the mass of the mixture was measured. If a clear solution had formed then the solubility of the complex was calculated as a single value, based on the mass of complex and the amount of solvent added to achieve a homogeneous solution. If the mixture remained heterogeneous (visible solids or murky), then the value reported is given as being “less than” the calculated value.
Method 2: A measured amount of complex (actual mass recorded, including any residual solvent as noted above) was added to a tared vial, followed by a stir bar. Dry isohexanes were added in small portions and the resulting mixture was stirred after each portion of isohexanes. If a clear solution had formed then the solubility was reported as a range, the lower bound of solubility calculated using the total solvent added to achieve a homogenous solution and the upper bound of solubility calculated using the total solvent measured prior to achieving a homogenous solution. If the mixture remained heterogeneous (visible solids or murky), the upper bound of solubility was calculated using the total solvent added. Formula used to calculate solubility are listed below. Solvent present in the complex is included in the mass and formula weight of the complexes.

The nature of data set [3]: Propylene polymerization (PP) in small-scale autoclave reactors: yield, quench time, catalyst activity. Particulars: activator A. An excerpt:
Solutions of the pre-catalysts were made using toluene (ExxonMobil Chemical—anhydrous, stored under N2) (98%) or isohexane (ExxonMobil Chemical—polymerization grade, and purified as described below). Pre-catalyst solutions were typically 0.25 mmol/L.
Solvents, polymerization grade toluene and/or isohexanes were supplied by ExxonMobil Chemical Co. and are purified by passing through a series of columns: two 500 cc Oxyclear cylinders in series from Labclear (Oakland, Calif), followed by two 500 cc columns in series packed with dried […] (8-12 mesh; Aldrich Chemical Company), and two 500 cc columns in series packed with dried 5 Å mole sieves (8-12 mesh; Aldrich Chemical Company).
Polymerization grade propylene (C3) was used and further purified by passing it through a series of columns: 2250 cc Oxiclear cylinder from Labclear followed by a 2250 cc column packed with 3 Å mole sieves (8-12 mesh; Aldrich Chemical Company), then two 500 cc columns in series packed with 5 Å mole sieves (8-12 mesh; Aldrich Chemical Company), then a 500 cc column packed with Selexsorb CD (BASF), and finally a 500 cc column packed with Selexsorb COS (BASF).
Activation of the pre-catalysts was either by dimethylanilinium tetrakisperfluorophenylborate (Boulder Scientific or Albemarle Corp; Act ID=A) or is (hydrogenated tallow alkyl)methylammonium tetrakis(pentafluorophenyl)borate supplied as a 10 wt % solution in methylcyclohexane (Boulder Scientific; Act ID=B). Activators were typically used as a 0.25 mmol/L solution in toluene or isohexane.
Tri-n-octylaluminum (TnOAl or TNOA, Neat, AkzoNobel) was also used as a scavenger prior to introduction of the activator and pre-catalyst into the reactor. TNOA was typically used as a 5 mmol/L solution in toluene or isohexane.
Polymerizations were conducted in an inert atmosphere (N2) drybox using autoclaves equipped with an external heater for temperature control, glass inserts (internal volume of reactor=23.5 mL for C2 and C2/C8; 22.5 mL for C3 runs), septum inlets, regulated supply of nitrogen, ethylene and propylene, and equipped with disposable PEEK mechanical stirrers (800 RPM). The autoclaves were prepared by purging with dry nitrogen at 110° C. or 115° C. for 5 hours and then at 25° C. for 5 hours.
The reactor was prepared as described above, then heated to 40° C., and then purged with propylene gas at atmospheric pressure. Toluene or isohexanes, liquid propylene (1.0 mL) and scavenger (TNOA, 0.5 μmol) were added via syringe. The reactor was then brought to process temperature (70° C. or 100° C.) while stirring at 800 RPM. The activator solution, followed by the pre-catalyst solution, were injected via syringe to the reactor at process conditions. Reactor temperature was monitored and typically maintained within +/−1° C. Polymerizations were halted by addition of approximately 50 psi compressed dry air gas mixture to the autoclaves for approximately 30 seconds. The polymerizations were quenched based on a predetermined pressure loss (maximum quench value) or for a maximum of 30 minutes. The reactors were cooled and vented. The polymers were isolated after the solvent was removed in-vacuo. The actual quench time (s) is reported as quench time (s). Yields reported include total weight of polymer and residual catalyst. Catalyst activity is reported as grams of polymer per mmol transition metal compound per hour of reaction time (g/mmol·hr).
Polymerization results are collected in Tables 2 below. “Ex #” stands for example number. Example numbers starting with a “C” are comparative examples. “Cat ID” identifies the pre-catalyst used in the experiment. Corresponding numbers identifying the pre-catalyst (also referred to as pre-catalyst, catalyst, complex or compound) are located in the synthetic experimental section. T(° C.) is the polymerization temperature which was typically maintained within +/−1° C. “Yield” is polymer yield, and is not corrected for catalyst residue. […]

Data set [4] can be described thus: Rapid GPC of polymers (Mn, Mw, Mz, PDI). Type of data set: physicochemical. On the set-up: Mn / Mw / Mz: unit not given here. The method, then: For analytical testing, polymer sample solutions were prepared by dissolving polymer in 1,2,4-trichlorobenzene (TCB, 99+% purity from Sigma-Aldrich) containing 2,6-di-tert-butyl-4-methylphenol (BHT, 99% from Aldrich) at 165° C. in a shaker oven for approximately 3 hours. The typical concentration of polymer in solution was between 0.1 to 0.9 mg/mL with a BHT concentration of 1.25 mg BHT/mL of TCB. Samples were cooled to 135° C. for testing.
High temperature size exclusion chromatography was performed using an automated “Rapid GPC” system as described in U.S. Pat. Nos. 6,491,816; 6,491,823; 6,475,391; 6,461,515; 6,436,292; 6,406,632; 6,175,409; 6,454,947; 6,260,407; and 6,294,388; each of which is incorporated herein by reference. Molecular weights (weight average molecular weight (Mw), number average molecular weight (Mn) and z average molecular weight (Mz)) and molecular weight distribution (MWD=Mw/Mn), which is also sometimes referred to as the polydispersity (PDI) of the polymer, were measured by Gel Permeation Chromatography using a Symyx Technology GPC equipped with evaporative light scattering detector (ELSD) and calibrated using polystyrene standards (Polymer Laboratories: Polystyrene Calibration Kit S-M-10: Mp (peak Mw) between 5,000 and 3,390,000). Alternatively, samples were measured by Gel Permeation Chromatography using a Symyx Technology GPC equipped with dual wavelength infrared detector and calibrated using polystyrene standards (Polymer Laboratories: Polystyrene Calibration Kit S-M-10: Mp (peak Mw) between 580 and 3,039,000). […] No column spreading corrections were employed. Numerical analyses were performed using Epoch® software available from Symyx Technologies or Automation Studio software available from Freeslate. The molecular weights obtained are relative to linear polystyrene standards. Molecular weight data is reported in Table 2 under the headings Mn, Mw, Mz and PDI as defined above.

[5] abbreviates: polypropylene made with activator A at 70° C.
Setting [6] is: polypropylene made with activator A at 100° C.
Setting [7] is: polypropylene made with activator A at 70° C., Mw/Mn.
Setting [8] is: polypropylene made with activator A at 100° C., Mw/Mn.
[9] abbreviates: polymer made with activator A, T 70 ° C.

Structures are written as SMILES. Values joined by “and” are separate entries in the source; they are usually repeats but may differ in a detail not shown here. Equal entries are not always repeated.

As to `Cc1cc2c(c(C34CC5CC(CC(C5)C3)C4)c1)[O][Zr-]1([CH3])([CH3])[O]c3c(cc(C)cc3C34CC5CC(CC(C5)C3)C4)-c3ccccc3-c3cccc([n+]31)-c1ccccc1-2` [Complex 1], the Tm was 147.5 °C and 147.3 °C and 148.1 °C in data set [1] (setting [5]); 145.8 °C and 147.0 °C in data set [1] (setting [6]). In data set [2], the “Solubility (s) in Isohexane” value is less than 600 µM. In addition, the “Solubility (s) in Isohexane (wt %)” value in data set [2] is recorded as less than 0.08 wt %. For the same compound, the Activity was 5,668,800 g P/mmol cat • hr and 7,619,077 g P/mmol cat • hr and 6,920,571 g P/mmol cat • hr in data set [3] (T 70° C.); 3,931,500 g P/mmol cat • hr and 4,448,471 g P/mmol cat • hr and 2,644,800 g P/mmol cat • hr in data set [3] (T 100° C.). Besides, the Mn was 57,753 and 64,376 and 67,290 in data set [4] (setting [5]); 28,762 and 34,553 and 48,560 in data set [4] (setting [6]). The Mw in data set [4] (setting [5]) was 372,797 and 502,821 and 428,075; in data set [4] (setting [6]) it was 152,087 and 155,815 and 169,007. Also, the Mz in data set [4] (setting [5]) was 1,464,190 and 2,141,863 and 1,753,319; in data set [4] (setting [6]), 646,646 and 665,846 and 624,200. In addition, the PDI was 6.46 and 7.81 and 6.36 in data set [4] (setting [7]); 5.29 and 4.51 and 3.48 in data set [4] (setting [8]).
As for `Cc1cc2c(c(C34CC5CC(C)(CC(C)(C5)C3)C4)c1)[O][Hf-]1([CH3])([CH3])[O]c3c(cc(C)cc3C34CC5CC(C)(CC(C)(C5)C3)C4)-c3ccccc3-c3cc(N4CCCC4)cc([n+]31)-c1ccccc1-2` [Complex 30], the Tm in data set [1] (setting [5]) was 163.3 °C and 163.5 °C and 164.8 °C; in data set [1] (setting [6]), 158.0 °C and 158.7 °C and 159.0 °C. Also, the Activity in data set [3] (T 70° C.) was 7,103 g P/mmol cat • hr and 6,836 g P/mmol cat • hr and 8,533 g P/mmol cat • hr; in data set [3] (T 100° C.), 4,453 g P/mmol cat • hr and 6,707 g P/mmol cat • hr and 8,689 g P/mmol cat • hr. Also, the Mn in data set [4] (setting [5]) is 186,851 and 187,906 and 245,411; in data set [4] (setting [6]), 86,554 and 106,308 and 121,006. In addition, the Mw is 346,587 and 346,773 and 427,041 in data set [4] (setting [5]); 147,732 and 177,827 and 199,815 in data set [4] (setting [6]). The Mz in data set [4] (setting [5]) was 762,107 and 711,356 and 871,754; in data set [4] (setting [6]) it was 301,600 and 354,753 and 438,188. Further, the PDI in data set [4] (setting [7]) was 1.85 and 1.74; in data set [4] (setting [8]), 1.71 and 1.67 and 1.65.
`Cc1cc2[n+]3c(c1)-c1ccccc1-c1cc(C(C)(C)C)cc(C45CC6CC(CC(C6)C4)C5)c1[O][Zr-]3([CH3])([CH3])[O]c1c(cc(C(C)(C)C)cc1C13CC4CC(CC(C4)C1)C3)-c1ccccc1-2` [compound 3]: the Tm in data set [1] (setting [9]) is 150.7 °C. Moreover, the Activity in data set [3] (T 70° C.) was 1,251,771 g P/mmol cat • hr. In data set [4] (setting [9]), the Mn was 206,080, the Mw is 676,784, the Mz is 2,471,266 and the PDI came out at 3.28.
